Reference: a melting point compilation (Tetko et al.; mined from patent text by program, amines drawn as free bases though some values may be those of a salt)

SMILES | melting point [°C]
CNS(=O)(=O)c1ccc(Cl)c(C)c1Cl | 118
O=C(NC=Cc1ccc(O)cc1)c1ccc(Cl)cc1 | 243 to 244
O=S(=O)(O)c1nc2cc(Cl)c(Cl)cc2[nH]1 | 353 to 354
COc1ccc(Cl)cc1C(=O)NCCc1ccc(-c2cc(C)cs2)c(S(N)(=O)=O)c1 | 165 to 168
CC(C)c1cc(C(C)C)n(-c2ccc(NC(=O)c3cccnc3)cc2)n1 | 190 to 192
COC(=O)c1cccc(-c2ncc(N=CN(C)C)cn2)c1 | 146
O=C1CCN(Cc2ccc([N+](=O)[O-])cc2)CC1C(c1ccc(F)cc1)c1ccc(F)cc1 (stereo not drawn) | 118 to 119
Cc1cccc(Nc2ccccc2C(=O)OCC(=O)N(C)C)c1C | 85 to 86
CN(C(=O)c1ccccc1)C(=N[N+](=O)[O-])NCc1cnc(Cl)s1 | 170 to 172
CC(C)(C)OC(=O)NCC#Cc1cccnc1 | 74 to 78
CCCCn1c(=O)c2c(ncn2S(=O)(=O)c2ccc(C(C)(C)C)cc2)n(CCCC)c1=O | 105 to 107
CCNC(=O)C1CC(n2cnc3c(NC(CC)Cc4ccc(Cl)s4)ccnc32)C(O)C1O (stereo not drawn) | 77 to 85
Nc1nc(Nc2ccc([N+](=O)[O-])cc2)sc1C(=O)c1ccccc1[N+](=O)[O-] | 266 to 268
O=C(O)Cc1ccc(-n2cc(F)cn2)c(Cl)c1 | 110 to 112
O=C1NCN(c2ccccc2)C12CCN(CCCn1c(=O)[nH]c3ccccc31)CC2 | 228
CCCCc1nc(SCCO)c(C(=O)O)n1Cc1ccc(-c2ccccc2C(=O)O)cc1 | 194
Nc1nc(N)c2ncn(COCCOC(=O)c3ccccc3)c2n1 | 205
CCCc1c2nc(C(=O)O)cc(Cl)c2cc2c(=O)cc(C(=O)O)oc12 | 336 to 338
CC(C)(C)OC(=O)N[C@H]1CC[C@@H](OS(C)(=O)=O)C1 | 88 to 89
COc1ccc(Cl)cc1[C@]1(F)C(=O)N(C(=O)NC(C)(C)C(=O)OC(C)(C)C)c2cc(C(F)(F)F)ccc21 | 57 to 60
Cc1cc2c(Oc3cccc(C(F)(F)F)c3)nc(CCC(F)(F)F)nc2s1 | 85
c1ccc(C(=NOC(=NC2CCCCC2)NC2CCCCC2)c2ccccc2)cc1 | 104 to 107
COc1ccccc1C(=O)NN=C(CC(C)C)c1ccncc1 | 130

The next lines start with the values.

melting point [°C] | SMILES
210 to 212 | COCc1cnc2c(NC(=O)c3c(Cl)cccc3Cl)cccc2c1N1CCNC1=O
205 to 206 | NN1C(=O)C(C(=O)C(Cc2ccc3ccccc3c2)NC(=O)OCc2ccccc2)C1Oc1ccccc1 (stereo not drawn)
204 | O[C@H]1COC(c2cc3ccccc3[nH]2)=N[C@@H]1c1ccccc1 (racemic)
201 to 205 | O=P1(c2ccc(F)cc2)c2ccccc2CN1c1ccc(Br)cc1 (stereo not drawn)
185 to 186 | CC(C)c1cc(-c2ccc(N)c3ccccc23)nc(N)n1
> 250 | Cc1c2c(nn1Cc1ccccc1)c(N)nc1ccccc12
105 to 106 | O=C(Cc1cc(O)no1)OC(c1ccccc1)c1ccccc1
114 to 115 | O=c1oc(-c2cccc(Oc3ccccc3)c2)cc(O)c1SCCc1ccccc1
113 to 114 | COc1cc(CCCn2cncn2)ccc1OCc1coc(/C=C/c2ccccc2)n1
218 to 220 | COc1ccc(-c2nn3c(SC)nnc3c3ccccc23)cc1
263 | CCCC1=C(C#N)C(c2cccc3ccccc23)c2c[nH]nc2N1 (stereo not drawn)
209 | Cc1nc2ccc(Cl)cc2n2c(-c3ccccc3Cl)nnc12
172 | CNc1cccc2c1C(=O)c1ccccc1C2=O
227 to 230 | Clc1cccc(-c2nnc3c4ccc(Cl)cc4c(-c4ccccc4)nn23)c1
306 | NS(=O)(=O)c1cccc(NC(=O)c2cnn3c(C(F)F)cc(-c4ccc(Cl)c(Cl)c4)nc23)c1
